Measurements as given in US20040072738A1, “Analogues of thiocoraline and be-22179” (priority 2000, published 2004).
Bridge positions count the residues as written; N and C are the ends. Square brackets hold non-standard residues; d marks the D form. Peptide text beside a SMILES is read from it. I, II: the chains in the order shown. * marks the point of attachment. Quinaldoyl(3-OH) = O=C(c1nc2ccccc2cc1O)*; NMeC = CN[C@@H](CS)C(=O)O

Experiments:
w794 DNA = experiment: DNase I and MTE footprinting; type: binding
Method: FIG. 9 is an electrophoresis gel of DNase footprinting of echinomycin bound to w794 DNA. Lane 13, G, C and A Sanger sequencing reactions; lane 4, native DNA; lane 5, control DNA without treatment of DNase I; lanes 6-14; 0, 10, 20, 40, 60, 80, 100, 120, and […] echinomycin with DNase I treatment (1 min).
FIG. 10 is an electrophoresis gel of DNase footprinting of thiocoraline bound to w794 DNA. Lane 1, native DNA; lane 2, control DNA without treatment of DNase I; lanes 3-6, G, C, A, and T Sanger sequencing reactions; lanes 7-26; 0, 10, 25, 50, 75, 100, 150, 200, 250, 300, 350, 400, 450, 500, 600, 700, 800, 900, 1000, and […] thiocoraline with DNase I treatment (1 min).

supercoiled ΦX174 DNA [1] = experiment: DNA cleavage assay, conversion of Form I to Form II or Form III; type: biochemical
Text: Also examined was the ability of 1 or 2 to cleave, alkylate, or cross-link DNA. In particular, the electrophilic unsaturation found in BE-22179 might be expected to serve as an alkylation site for covalent attachment to DNA, especially following bisintercalation binding. […] These studies would detect both thermally labile and non thermally labile alkylation sites, but only those engaged in interstrand cross-linking. Given the C2 symmetric nature of 2, bisintercalation analogous to echinomycin and triostin A places the two electrophilic sites in positions to react only with the complementary strands of duplex DNA (interstrand DNA cross-linking) and would preclude intrastrand DNA cross-linking.

DNA topoisomerase I = biological target: T1, DNA topoisomerase I (Homo sapiens, UniProt P11387); details: cited from earlier work
T1 sequence (P11387 1-765): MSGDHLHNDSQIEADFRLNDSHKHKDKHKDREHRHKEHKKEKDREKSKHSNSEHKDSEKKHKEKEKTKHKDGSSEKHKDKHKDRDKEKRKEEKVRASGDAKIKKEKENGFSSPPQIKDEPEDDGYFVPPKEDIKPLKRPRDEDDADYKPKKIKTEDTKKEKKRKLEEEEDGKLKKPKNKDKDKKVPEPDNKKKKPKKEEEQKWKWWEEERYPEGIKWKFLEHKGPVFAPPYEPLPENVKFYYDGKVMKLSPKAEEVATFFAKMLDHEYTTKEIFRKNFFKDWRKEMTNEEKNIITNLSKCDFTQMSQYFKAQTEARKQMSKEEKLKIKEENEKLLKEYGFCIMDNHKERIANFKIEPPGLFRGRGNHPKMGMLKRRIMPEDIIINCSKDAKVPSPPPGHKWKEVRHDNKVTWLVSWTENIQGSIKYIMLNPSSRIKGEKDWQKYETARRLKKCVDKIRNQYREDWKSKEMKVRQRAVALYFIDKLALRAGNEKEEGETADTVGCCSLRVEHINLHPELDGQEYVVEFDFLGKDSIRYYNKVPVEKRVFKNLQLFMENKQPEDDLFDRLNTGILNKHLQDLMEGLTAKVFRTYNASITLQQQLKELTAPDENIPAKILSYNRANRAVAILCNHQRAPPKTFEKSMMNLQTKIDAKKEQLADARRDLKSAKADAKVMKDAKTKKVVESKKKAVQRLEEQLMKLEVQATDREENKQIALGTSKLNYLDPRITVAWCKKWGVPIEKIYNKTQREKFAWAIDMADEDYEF

L1210 cell line = experiment: cytotoxic activity in the L1210 assays; details: read-out: IC50 cytotoxic activity; L1210 cell line
supercoiled ΦX174 DNA [2] = experiment: unwinding and rewinding of negatively supercoiled DNA, agarose gel electrophoresis; type: biochemical
Text: Confirmation that thiocoraline and BE-22179 bind to DNA with bisintercalation was derived from their ability to induce the unwinding of negatively supercoiled DNA. This was established by their ability to gradually decrease the agarose gel electrophoresis mobility of supercoiled ΦX174 DNA (unwinding) at increasing concentrations followed by a return to normal mobility (rewinding) at even higher concentrations. Under the conditions employed, echinomycin unwound ΦX174 DNA at a 0.044 agent/base pair ratio (FIG. 11 and FIG. 12). Thiocoraline completely unwound ΦX174 DNA at a higher 0.11 agent/base pair ratio, whereas BE-22179 required even higher concentrations producing the unwinding at an agent/base pair ratio of 1.1. […] Thus, the distinctions in 1 and 2 and echinomycin detected here appear to be related to the nature of the cyclic depsipeptide and not the structure of the chromophore.
FIG. 8 is a table of comparative DNA binding properties. ^aCalf thymus DNA, KB=apparent binding constant determined by fluorescence quenching. The value in paren-theses is the agent/base pair ratio at saturated high-affinity binding and may be considered a measure of the selectivity of binding. ^bAgent/base pair ratio required to unwind negatively supercoiled FX174 DNA (form I to form II gel mobility, 0.9% agarose gel). ^cAgent/base pair ratio required to induce complete rewinding or positive super-coiling of FX174 DNA (form II to form I gel mobility, 0.9% agarose gel). ^dBinding constant established by footprinting at a 5′-CCGC site (FIG. 9).
(A) Lane 1, untreated supercoiled FX174 DNA, 95% form 1 and 5% form II; lanes 2-8, thiocoraline-treated FX174 DNA; lanes 9-14, echinomycin-treated FX174 DNA. The [agent]-to-[base pair] ratios were 0.022 (lanes 2 and 9), 0.033 (lanes 3 and 10), 0.044 (lanes 4 and 11), 0.066 (lanes 5 and 12), 0.11 (lanes 6 and 13), 0.22 (lanes 7 and 14), and 0.44 (lane 8). (B) Lane 1, untreated supercoiled FX174 DNA, lanes 2-12, BE-22179-treated FX174 DNA. The [agent]-to-[base pair] ratios were 0.022, (lane 2), 0.033 (lane 3), 0.044 (lane 4), 0.066 (lane 5), 0.11 (lane 6), 0.22 (lane 7), and 0.33 (lane 8), 0.44 (lane 9), 0.66 (lane 10), 1.1 (lane 11), and 2.2 (lane 12). (C) Lane 1, untreated supercoiled FX174 DNA, 95% form 1 and 5% form II; lanes 2-8, thiocoraline analogue (27)-treated FX174 DNA. The [agent]-to-[base pair] ratios were 0.022 (lane 2), 0.033 (lane 3), 0.044 (lane 4), 0.066 (lane 5), 0.11 (lane 6), 0.22 (lane 7), and 0.44 (lane 8).

SMILES: CSC[C@H]1C(=O)SC[C@@H](NC(=O)c2nc3ccccc3cc2O)C(=O)NCC(=O)N(C)[C@H]2CSSC[C@@H](C(=O)N1C)N(C)C(=O)CNC(=O)[C@H](NC(=O)c1nc3ccccc3cc1O)CSC(=O)[C@H](CSC)N(C)C2=O [Thiocoraline] (I: {Quinaldoyl(3-OH)}-[dC]G[NMeC][NMeC](Me) / II: {Quinaldoyl(3-OH)}-[dC]G[NMeC][NMeC](Me); thioester I:1-II:C, I:C-II:1; disulfide I:3-II:3)
- selectivity of DNA binding by footprinting (w794 DNA): failed to reveal a distinguishable selectivity
- DNA cleavage (supercoiled ΦX174 DNA [1]): No evidence
- inhibition of DNA topoisomerase I (DNA topoisomerase I): does not inhibit
- IC50 (L1210 cell line): 0.2 nM
- agent/base pair ratio required to unwind supercoiled DNA (supercoiled ΦX174 DNA [2]; form I to form II gel mobility): 0.11 agent/base pair ratio
- agent/base pair ratio for complete rewinding of supercoiled DNA (supercoiled ΦX174 DNA [2]; form II to form I gel mobility): 0.44 agent/base pair ratio
